Test results: patent US5124455A, “Oxime-carbamates and oxime-carbonates as bronchodilators and anti-inflammatory agents” (American Home Products Corporation, priority 1990, dated 1992)

Tested on: PDE IV
Test: inhibition of PDE IV isolated from canine trachea (cAMP metabolism)
Type: biochemical
Details: PDE IV from canine tracheal muscle; 1 μM 3H-cAMP; 10 μM CI-930; 30° C., pH 7.8; reduction expressed as percentage of that by 10 μM rolipram
Description: The following assay is employed to assess the ability of the compounds of the invention to inhibit PDE IV.
A solution containing PDE IV is prepared from canine tracheal muscle as follows:
The dog is euthanized with an overdose of beuthanasia while under anesthesia induced by a 33 mg/kg IV bolus of Nembutal. The trachealis muscle is removed, cleaned of connective tissue, and minced thoroughly. Three to four grams of tissue is then homogenized in Tris-HCl buffer (pH 7.8) using a Polytron. The homogenate is then centrifuged at 25,000×g (4° C.) for 30 minutes. The supernatant is decanted and filtered through four layers of gauze, and applied to a 40 cm×2 cm DEAE-Sepharose column that is equilibrated with Tris-HCl buffer (pH 7.8). The column is then washed with an additional 240 mL of buffer to remove unbound proteins. PDE is eluted using 450 mL of Tris-HCl buffer containing a linear gradient of 0.0-1.0M Na-acetate (80 mL/hr), and 7.5 mL fractions are collected. Each fraction is assayed for cAMP- and cGMP-metabolizing PDE activity. Fractions eluting at approximately 0.6M Na-acetate, and containing cAMP but not cGMP metabolic activity are pooled and used as a PDE stock solution for assaying PDE IV inhibitory activity.
CI-930 is included as an inhibitor of the cyclic GMP-sensitive, cyclic AMP-selectivePDE (PDE III) that is also present in the PDE IV stock solution when prepared as described above.

Row | IC50 [nM] | SMILES
1 | 180 | COC(=O)O/N=C(\C)c1ccc(OC)c(OC2CCCC2)c1 [Example 10, 1-[3-(cyclopentyloxy)-4-methoxyphenyl]ethanone (E)-O-(methoxycarbonyl)oxime]
2 | 410 | COc1ccc(/C(C)=N/OC(N)=O)cc1OCCCOc1ccccc1 [Example 3, 1-[4-Methoxy-3-(3-phenoxypropoxy)phenyl]ethanone (E)-O-(aminocarbonyl)oxime]
3 | 48 | COc1ccc(/C(C)=N/OC(N)=O)cc1OC1CCCC1 [Example 1, 1-[3-(Cyclopentyloxy)-4-methoxyphenyl]ethanone (E)-O-(aminocarbonyl)oxime]
4 | 25 | COc1ccc(/C(CCc2ccccc2)=N/OC(N)=O)cc1OC1CCCC1 [Example 5, 1-(3-Cyclopentyloxy-4-methoxyphenyl)-3-phenylpropanone (E)-O-(aminocarbonyl)oxime]
5 | 67 | COc1ccc(/C(C)=N/OC(N)=O)cc1OC1CC2CCC1C2 (stereo not shown) [Example 13, 1-[3-(bicyclo[2.2.1]hept-2-yloxy)-4-methoxyphenyl]ethanone (E)-O-(aminocarbonyl)oxime]
6 | 47 | COc1ccc(/C(Cc2ccccc2)=N/OC(N)=O)cc1OC1CCCC1 [Example 4, 1-(3-Cyclopentyloxy-4-methoxyphenyl)-2-phenylethanone (E)-O-(aminocarbonyl)oxime]
7 | 130 | COc1ccc(/C(CC(C)C)=N/OC(N)=O)cc1OC1CCCC1 [Example 6, 1-[3-(Cyclopentyloxy)-4-methoxyphenyl]-3-methylbutanone (E)-O-(aminocarbonyl)oxime]

Row | SMILES | IC50 [nM]
8 | CCCCOc1cc(/C(C)=N/OC(N)=O)ccc1OC [Example 2, 1-[3-(Butoxy)-4-methoxyphenyl]ethanone (E)-O-(aminocarbonyl)oxime] | 90
9 | CCCCOc1cc(/C(C)=N/OC(=O)NC)ccc1OC [Example 8, 1-(3-butoxy-4-methoxyphenyl)ethanone (E)-O-[(methylamino)carbonyl]oxime] | 200
10 | CCCCOc1cc(/C(C)=N/OC(=O)OC)ccc1OC [Example 11, 1-(3-butoxy-4-methoxyphenyl)ethanone (E)-O-(methoxycarbonyl)oxime] | 240
11 | CCCCOc1cc(/C(C)=N/OC(=O)Nc2ccccc2)ccc1OC [Example 9, 1-(3-butoxy-4-methoxyphenyl)ethanone (E)-O-[(phenylamino)carbonyl]oxime] | 1500
12 | CCCCOc1cc(/C(C)=N/OC(=O)Oc2ccccc2)ccc1OC [Example 12, 1-(3-butoxy-4-methoxyphenyl)ethanone (E)-O-(phenoxycarbonyl)oxime] | 380
13 | CNC(=O)O/N=C(\C)c1ccc(OC)c(OC2CCCC2)c1 [Example 7, 1-[3-(Cyclopentyloxy)-4-methoxyphenyl]ethanone (E)-O-[(methylamino)carbonyl]oxime] | 120
